{"source": "patent EP0603240B1", "about": "“SAFENING HERBICIDAL PYRAZOLYLSULFONYLUREAS” (priority 1991, dated 1993)", "format_in_all_cases": "in vivo", "key": {"[1]": {"system": "corn", "experiment": "Example 20, Procedure II: Herbicide No. 1 + EPTC or ERADICANE EXTRA with Antidote Nos. 5 and 15", "description": "(§1) Containers were filled and compacted with a fumigated silt loam top soil to a depth of about 1.3 cm from the top of the container. A first container was designated as an untreated control, a second container was designated as a herbicide control, and a third container was designated as a herbicide + antidote test container. Each of the containers was seeded with a crop species. A measured amount of herbicide dispersed or dissolved in acetone was applied to a measured quantity of soil. To this same quantity of soil treated with herbicide, there was added a measured amount of antidote dispersed or dissolved in acetone. The quantity of soil treated with the herbicide and antidote was thoroughly mixed to incorporate the herbicide and antidote in the soil uniformly. The seed bed in the third container of soil was covered with the soil treated with the herbicide and antidote and the container was leveled. For each test series, the seed beds of the first and second containers were likewise covered by soil layers. the cover layer of the first container was not treated with herbicide or antidote.\n(§2) The containers were then placed on a bench in a greenhouse and sub-irrigated as required for the duration of the test. […] Plant response is measured in terms of percent injury. Antidote efficacy is indicated as the difference in plant injury by the herbicide(s) without the antidote and with the antidote.\nThis procedure is the same as Procedure I, but modified in the manner that after incorporation of the chemicals (herbicide and antidote) the containers with the covered seedbed were treated with an initial overhead irrigation equivalent to 0.6 cm rainfall, then subsequently sub-irrigated as required on greenhouse benches.\nThis example describes experiments designed to test two generally efficacious antidotal compounds, i.e., Antidote Nos. 5 and 15, against the herbicidal action of the sulfonylurea compound, Herbicide No. 1, and the commercial herbicides EPTC (Herbicide No. 4) and ERADICANE® EXTRA (EPTC + R-29148, Antidote No. 5). Procedure II above was used in conducting these experiments. Formulations of EPTC and ERADICANE EXTRA were applied onto soil cover layers (to be applied over seed beds), followed by sequential pipetting of Herbicide No. 1 and Antidote No. 15. The soil was mixed to homogeneity and spread over the seed beds followed by 0.6 cm of overhead irrigation."}, "[2]": {"system": "velvetleaf (Abutilon theophrasti)", "experiment": "Example 4, Procedure I: Antidote Nos. 15 and 16 against Herbicide No. 1", "description": "as §1, §2\n(§3) In the series of greenhouse tests described below, for routine screening purposes the herbicide/antidote compositions were tested in crop/weed combinations involving corn as the crop and either or both of the weeds barnyardgrass (Echinochloa crusgalli), a monocotyledonous weed, and velvetleaf (Abutilon theophrasti), a dicotyledonous weed. In the tables below, these weeds are indicated by the symbols \"BYG\" and \"VL\", respectively.\n(§4) This example describes tests with Antidote Nos. 15 and 16 to safen Herbicide No. 1 according to Procedure I using corn and the weeds barnyardgrass and velvetleaf as the test plants."}, "[3]": {"system": "barnyardgrass (Echinochloa crusgalli)", "experiment": "Example 4, Procedure I: Antidote Nos. 15 and 16 against Herbicide No. 1", "description": "as §1, §2, §3, §4"}, "[4]": {"system": "velvetleaf (Abutilon theophrasti)", "experiment": "Example 5, Procedure I: Herbicide No. 1 + alachlor (No. 7) with Antidote Nos. 15 and 16", "description": "as §1, §2, §3, §4\n(§5) In the tests described in this example, the same procedure described in Example 4 was performed simultaneously therewith and under the same conditions, except that a co-herbicide, alachlor, was included in the same composition with Herbicide No. 1 and Antidote Nos. 15 and 16. Alachlor (Herbicide No. 7 herein) is the active ingredient in the commercial product LASSO® herbicide."}, "[5]": {"system": "barnyardgrass (Echinochloa crusgalli)", "experiment": "Example 5, Procedure I: Herbicide No. 1 + alachlor (No. 7) with Antidote Nos. 15 and 16", "description": "as §1, §2, §3, §4, §5"}, "[6]": {"conditions": "Herb. No. 1 4.48 kg/ha + antidote 0.56 kg/ha"}, "[7]": {"conditions": "Herb. No. 1 4.48 kg/ha + antidote 2.24 kg/ha"}, "[8]": {"conditions": "Herb. No. 1 6.72 kg/ha + antidote 0.56 kg/ha"}, "[9]": {"conditions": "Herb. No. 1 6.72 kg/ha + antidote 2.24 kg/ha"}, "[10]": {"conditions": "Herbicide No.1 4.48 + No.7 0.56 kg/ha + antidote 0.56 kg/ha"}, "[11]": {"conditions": "Herbicide No.1 4.48 + No.7 0.56 kg/ha + antidote 2.24 kg/ha"}, "[12]": {"conditions": "Herbicide No.1 4.48 + No.7 2.24 kg/ha + antidote 0.56 kg/ha"}, "[13]": {"conditions": "Herbicide No.1 4.48 + No.7 2.24 kg/ha + antidote 2.24 kg/ha"}, "[14]": {"conditions": "Herbicide No.1 6.72 + No.7 0.56 kg/ha + antidote 0.56 kg/ha"}, "[15]": {"conditions": "Herbicide No.1 6.72 + No.7 0.56 kg/ha + antidote 2.24 kg/ha"}, "[16]": {"conditions": "Herbicide No.1 6.72 + No.7 2.24 kg/ha + antidote 0.56 kg/ha"}, "[17]": {"conditions": "Herbicide No.1 6.72 + No.7 2.24 kg/ha + antidote 2.24 kg/ha"}}}
{"smiles": "COC(=O)c1c(Cl)nn(C)c1S(=O)(=O)NC(=O)Nc1nc(OC)cc(OC)n1", "note": "[No.1]", "values": [{"measurement": "% Injury Corn", "setting": "[1]; Herbicide No.1 0.56 kg/ha + ERADICANE EXTRA 2.24 kg/ha", "value": 55, "unit": "%"}, {"measurement": "% Injury Corn", "setting": "[1]; Herbicide No.1 0.56 kg/ha + ERADICANE EXTRA 4.48 kg/ha", "value": 65, "unit": "%"}, {"measurement": "% Injury Corn", "setting": "[1]; Herbicide No.1 0.56 kg/ha + ERADICANE EXTRA 6.72 kg/ha", "value": 75, "unit": "%"}, {"measurement": "% Injury Corn", "setting": "[1]; Herbicide No.1 0.56 kg/ha + No. 4 2.24 kg/ha, no antidote", "value": 75, "unit": "%"}, {"measurement": "% Injury Corn", "setting": "[1]; Herbicide No.1 0.56 kg/ha + No. 4 4.48 kg/ha, no antidote", "value": 35, "unit": "%"}, {"measurement": "% Injury Corn", "setting": "[1]; Herbicide No.1 0.56 kg/ha + No. 4 6.72 kg/ha, no antidote", "value": 85, "unit": "%"}, {"measurement": "% Injury Corn", "setting": "[1]; Herbicide No.1 0.56 kg/ha alone", "value": 70, "unit": "%"}, {"measurement": "% Injury Corn", "setting": "[1]; Herbicide No.1 2.24 kg/ha + ERADICANE EXTRA 2.24 kg/ha", "value": 90, "unit": "%"}, {"measurement": "% Injury Corn", "setting": "[1]; Herbicide No.1 2.24 kg/ha + ERADICANE EXTRA 4.48 kg/ha", "value": 85, "unit": "%"}, {"measurement": "% Injury Corn", "setting": "[1]; Herbicide No.1 2.24 kg/ha + ERADICANE EXTRA 6.72 kg/ha", "value": 95, "unit": "%"}, {"measurement": "% Injury Corn", "setting": "[1]; Herbicide No.1 2.24 kg/ha + No. 4 2.24 kg/ha, no antidote", "value": 90, "unit": "%"}, {"measurement": "% Injury Corn", "setting": "[1]; Herbicide No.1 2.24 kg/ha + No. 4 4.48 kg/ha, no antidote", "value": 70, "unit": "%"}, {"measurement": "% Injury Corn", "setting": "[1]; Herbicide No.1 2.24 kg/ha + No. 4 6.72 kg/ha, no antidote", "value": 90, "unit": "%"}, {"measurement": "% Injury Corn", "setting": "[1]; Herbicide No.1 2.24 kg/ha alone", "value": 85, "unit": "%"}]}
{"smiles": "CC1(C)OC(c2ccco2)CN1C(=O)C(Cl)Cl", "note": "(centres unmarked) [compound 15]", "values": [{"measurement": "% Injury VL", "setting": "[2]; [6]", "value": 95, "unit": "%"}, {"measurement": "% Injury VL", "setting": "[2]; [7]", "value": 95, "unit": "%"}, {"measurement": "% Injury VL", "setting": "[2]; [8]", "value": 95, "unit": "%"}, {"measurement": "% Injury VL", "setting": "[2]; [9]", "value": 95, "unit": "%"}, {"measurement": "% Injury BYG", "setting": "[3]; [6]", "value": 95, "unit": "%"}, {"measurement": "% Injury BYG", "setting": "[3]; [7]", "value": 90, "unit": "%"}, {"measurement": "% Injury BYG", "setting": "[3]; [8]", "value": 90, "unit": "%"}, {"measurement": "% Injury BYG", "setting": "[3]; [9]", "value": 90, "unit": "%"}, {"measurement": "% Injury VL", "setting": "[4]; [10]", "value": 95, "unit": "%"}, {"measurement": "% Injury VL", "setting": "[4]; [11]", "value": 95, "unit": "%"}, {"measurement": "% Injury VL", "setting": "[4]; [12]", "value": 98, "unit": "%"}, {"measurement": "% Injury VL", "setting": "[4]; [13]", "value": 95, "unit": "%"}, {"measurement": "% Injury VL", "setting": "[4]; [14]", "value": 95, "unit": "%"}, {"measurement": "% Injury VL", "setting": "[4]; [15]", "value": 99, "unit": "%"}, {"measurement": "% Injury VL", "setting": "[4]; [16]", "value": 99, "unit": "%"}, {"measurement": "% Injury VL", "setting": "[4]; [17]", "value": 95, "unit": "%"}, {"measurement": "% Injury BYG", "setting": "[5]; [10]", "value": 99, "unit": "%"}, {"measurement": "% Injury BYG", "setting": "[5]; [11]", "value": 95, "unit": "%"}, {"measurement": "% Injury BYG", "setting": "[5]; [12]", "value": 100, "unit": "%"}, {"measurement": "% Injury BYG", "setting": "[5]; [13]", "value": 100, "unit": "%"}, {"measurement": "% Injury BYG", "setting": "[5]; [14]", "value": 99, "unit": "%"}, {"measurement": "% Injury BYG", "setting": "[5]; [15]", "value": 99, "unit": "%"}, {"measurement": "% Injury BYG", "setting": "[5]; [16]", "value": 100, "unit": "%"}, {"measurement": "% Injury BYG", "setting": "[5]; [17]", "value": 100, "unit": "%"}]}
